From ChEMBL document CHEMBL5375952, “Discovery of Novel 8-Hydroxyquinoline Derivatives with Potent In Vitro and In Vivo Antifungal Activity” (J Med Chem, 2023)
In brackets after ≈: the same amount, converted by molar mass.

Legend:
[1] = system: Candida albicans; test: Antifungal activity against Candida albicans SC5314 assessed as fungal growth inhibition incubated for 48 hrs by broth microdilution method; format: functional
[2] = system: Candida albicans; test: Antifungal activity against Candida albicans 21 assessed as fungal growth inhibition incubated for 48 hrs by broth microdilution method; format: functional
[3] = system: Candida albicans; test: Antifungal activity against Candida albicans 22 assessed as fungal growth inhibition incubated for 48 hrs by broth microdilution method; format: functional
[4] = system: Nakaseomyces glabratus; test: Antifungal activity against Candida glabrata 201 assessed as fungal growth inhibition incubated for 48 hrs by broth microdilution method; format: functional
[5] = system: Nakaseomyces glabratus; test: Antifungal activity against Candida glabrata 202 assessed as fungal growth inhibition incubated for 48 hrs by broth microdilution method; format: functional
[6] = system: Nakaseomyces glabratus; test: Antifungal activity against Candida glabrata 205 assessed as fungal growth inhibition incubated for 48 hrs by broth microdilution method; format: functional
[7] = system: Pichia kudriavzevii; test: Antifungal activity against Candida krusei 68 assessed as fungal growth inhibition incubated for 48 hrs by broth microdilution method; format: functional
[8] = system: Pichia kudriavzevii; test: Antifungal activity against Candida krusei 69 assessed as fungal growth inhibition incubated for 48 hrs by broth microdilution method; format: functional
[9] = system: Pichia kudriavzevii; test: Antifungal activity against Candida krusei 477 assessed as fungal growth inhibition incubated for 48 hrs by broth microdilution method; format: functional
[10] = system: Candida parapsilosis; test: Antifungal activity against Candida parapsilosis 105 assessed as fungal growth inhibition incubated for 48 hrs by broth microdilution method; format: functional; conditions: Lodderomyces parapsilosis
[11] = system: Candida parapsilosis; test: Antifungal activity against Candida parapsilosis 107 assessed as fungal growth inhibition incubated for 48 hrs by broth microdilution method; format: functional; conditions: Lodderomyces parapsilosis
[12] = system: Candida parapsilosis; test: Antifungal activity against Candida parapsilosis 125 assessed as fungal growth inhibition incubated for 48 hrs by broth microdilution method; format: functional; conditions: Lodderomyces parapsilosis
[13] = system: Candida tropicalis; test: Antifungal activity against Candida tropicalis 176 assessed as fungal growth inhibition incubated for 48 hrs by broth microdilution method; format: functional
[14] = system: Candida tropicalis; test: Antifungal activity against Candida tropicalis 178 assessed as fungal growth inhibition incubated for 48 hrs by broth microdilution method; format: functional
[15] = system: Candida tropicalis; test: Antifungal activity against Candida tropicalis 184 assessed as fungal growth inhibition incubated for 48 hrs by broth microdilution method; format: functional
[16] = system: Cryptococcus neoformans; test: Antifungal activity against Cryptococcus neoformans 443 assessed as fungal growth inhibition incubated for 48 hrs by broth microdilution method; format: functional
[17] = system: Cryptococcus neoformans; test: Antifungal activity against Cryptococcus neoformans 444 assessed as fungal growth inhibition incubated for 48 hrs by broth microdilution method; format: functional
[18] = system: Cryptococcus neoformans; test: Antifungal activity against Cryptococcus neoformans 445 assessed as fungal growth inhibition incubated for 48 hrs by broth microdilution method; format: functional
[19] = system: Aspergillus fumigatus; test: Antifungal activity against Aspergillus fumigatus 023-12 assessed as fungal growth inhibition incubated for 48 hrs by broth microdilution method; format: functional
[20] = system: Aspergillus fumigatus; test: Antifungal activity against Aspergillus fumigatus A assessed as fungal growth inhibition incubated for 48 hrs by broth microdilution method; format: functional
[21] = system: Aspergillus fumigatus; test: Antifungal activity against Aspergillus fumigatus 7544 assessed as fungal growth inhibition incubated for 48 hrs by broth microdilution method; format: functional
[22] = Cytotoxicity against human Caco-2 cells assessed as cell growth inhibition incubated for 24 hrs by CCK8 assay; format: toxicity, cell-based

SMILES | MIC [1] [µg/mL] | MIC [2] [µg/mL] | MIC [3] [µg/mL] | also measured
CCC(=O)NC(c1ccc(C)cc1)c1ccc2cccnc2c1O (stereo not drawn) | 0.5 (≈ 1.56 µM) | 0.5 (≈ 1.56 µM) | 0.5 (≈ 1.56 µM) | –
CC(C)C(=O)NC(c1ccc(OC(F)F)cc1)c1ccc2cccnc2c1O (stereo not drawn) | 1 (≈ 2.59 µM) | 0.5 (≈ 1.29 µM) | 0.5 (≈ 1.29 µM) | –
CN1CCN(C(c2ccncc2)c2ccc3cccnc3c2O)CC1 (stereo not drawn) | 4 (≈ 12 µM) | 4 (≈ 12 µM) | 4 (≈ 12 µM) | –
CCCC(=O)NC(c1cccc([N+](=O)[O-])c1)c1ccc2cccnc2c1O (stereo not drawn) | 1 (≈ 2.74 µM) | 1 (≈ 2.74 µM) | 1 (≈ 2.74 µM) | –
COc1ccc(C(NC(=O)Cc2ccccc2)c2ccc3cccnc3c2O)cc1 (stereo not drawn) | 2 (≈ 5.02 µM) | 0.5 (≈ 1.25 µM) | 1 (≈ 2.51 µM) | –
CCN(CC)c1ccc(C(NC(=O)Cc2ccccc2)c2ccc3cccnc3c2O)cc1 (stereo not drawn) | 0.5 (≈ 1.14 µM) | 1 (≈ 2.28 µM) | 2 (≈ 4.55 µM) | –
CCCC(=O)NC(c1ccc(N(C)C)cc1)c1ccc2cccnc2c1O (stereo not drawn) | 0.25 (≈ 0.688 µM) | 0.25 (≈ 0.688 µM) | 0.5 (≈ 1.38 µM) | –
CCC(=O)NC(c1ccccc1OC)c1ccc2cccnc2c1O (stereo not drawn) | 4 (≈ 11.9 µM) | 8 (≈ 23.8 µM) | 16 (≈ 47.6 µM) | –
CCCC(=O)NC(c1ccccc1)c1ccc2cccnc2c1O (stereo not drawn) | 1 (≈ 3.12 µM) | 1 (≈ 3.12 µM) | 1 (≈ 3.12 µM) | –
Cc1ccc(C(NC(=O)C(C)C)c2ccc3cccnc3c2O)cc1 (stereo not drawn) | 2 (≈ 5.98 µM) | 1 (≈ 2.99 µM) | 1 (≈ 2.99 µM) | –
O=C(Cc1ccccc1)NC(c1ccc(F)c(Cl)c1)c1ccc2cccnc2c1O (stereo not drawn) | 0.5 (≈ 1.19 µM) | 0.5 (≈ 1.19 µM) | 1 (≈ 2.38 µM) | –
CC(C)C(=O)NC(c1ccc(S(C)(=O)=O)cc1)c1ccc2cccnc2c1O (stereo not drawn) | 2 (≈ 5.02 µM) | 2 (≈ 5.02 µM) | 1 (≈ 2.51 µM) | –
CC(C)C(=O)NC(c1ccc(Br)cc1)c1ccc2cccnc2c1O (stereo not drawn) | 2 (≈ 5.01 µM) | 0.5 (≈ 1.25 µM) | 1 (≈ 2.5 µM) | –
COc1ccccc1C(NC(=O)Cc1ccccc1)c1ccc2cccnc2c1O (stereo not drawn) | 0.125 (≈ 0.314 µM) | < 0.125 | 0.125 (≈ 0.314 µM) | MIC [4]: 0.125 µg/mL (≈ 0.314 µM); MIC [5]: 0.125 µg/mL (≈ 0.314 µM); MIC [6]: 0.5 µg/mL (≈ 1.25 µM); MIC [7]: 0.125 µg/mL (≈ 0.314 µM); MIC [8]: 0.25 µg/mL (≈ 0.627 µM); MIC [9]: 0.25 µg/mL (≈ 0.627 µM); MIC [10]: 0.125 µg/mL (≈ 0.314 µM); MIC [11]: 0.125 µg/mL (≈ 0.314 µM); MIC [12]: 0.125 µg/mL (≈ 0.314 µM); MIC [13]: > 64 µg/mL; MIC [14]: > 64 µg/mL; MIC [15]: > 64 µg/mL; MIC [16]: 0.125 µg/mL (≈ 0.314 µM); MIC [17]: 0.125 µg/mL (≈ 0.314 µM); MIC [18]: 0.5 µg/mL (≈ 1.25 µM); MIC [19]: 2 µg/mL (≈ 5.02 µM); MIC [20]: 2 µg/mL (≈ 5.02 µM); MIC [21]: 2 µg/mL (≈ 5.02 µM); IC50 at 24 h [22]: > 64 µg/mL
CC(C)C(=O)NC(c1ccc(F)cc1)c1ccc2cccnc2c1O (stereo not drawn) | 1 (≈ 2.96 µM) | 1 (≈ 2.96 µM) | 1 (≈ 2.96 µM) | –
Cc1ccc(C(NC(=O)Cc2ccccc2)c2ccc3cccnc3c2O)cc1 (stereo not drawn) | 1 (≈ 2.61 µM) | 0.25 (≈ 0.654 µM) | 1 (≈ 2.61 µM) | –
O=C(Cc1ccccc1)NC(c1ccc(Cl)c(Cl)c1)c1ccc2cccnc2c1O (stereo not drawn) | 0.5 (≈ 1.14 µM) | 1 (≈ 2.29 µM) | 1 (≈ 2.29 µM) | –
O=C(Cc1ccccc1)NC(c1ccc(C(F)(F)F)cc1)c1ccc2cccnc2c1O (stereo not drawn) | 1 (≈ 2.29 µM) | 1 (≈ 2.29 µM) | 2 (≈ 4.58 µM) | –
O=C(Cc1ccccc1)NC(c1ccc(F)cc1)c1ccc2cccnc2c1O (stereo not drawn) | 0.5 (≈ 1.29 µM) | 1 (≈ 2.59 µM) | 1 (≈ 2.59 µM) | –
CC(C)C(=O)NC(c1cccc([N+](=O)[O-])c1)c1ccc2cccnc2c1O (stereo not drawn) | 0.25 (≈ 0.684 µM) | 0.25 (≈ 0.684 µM) | 0.5 (≈ 1.37 µM) | –
CC(C)C(=O)NC(c1ccc(F)c(Cl)c1)c1ccc2cccnc2c1O (stereo not drawn) | 0.5 (≈ 1.34 µM) | 0.25 (≈ 0.671 µM) | 0.5 (≈ 1.34 µM) | –
COc1ccc(C(NC(=O)Cc2ccccc2)c2ccc3cccnc3c2O)cc1OC (stereo not drawn) | 0.5 (≈ 1.17 µM) | 0.5 (≈ 1.17 µM) | 0.5 (≈ 1.17 µM) | –
CSc1ccc(C(NC(=O)C(C)C)c2ccc3cccnc3c2O)cc1 (stereo not drawn) | 2 (≈ 5.46 µM) | 1 (≈ 2.73 µM) | 2 (≈ 5.46 µM) | –
